According to patent US20150065416A1, “NOVEL DRUG COMBINATION” (FAB PHARMA SAS, priority 2013, published 2015):
≈ marks a conversion by molar mass, not a printed value. Like-named read-outs stand apart in the source and are kept apart here.

Key:
A. baumannii isolates [1] = test: Individual antimicrobial susceptibility testing (MIC, broth microdilution, CLSI); type: cell-based, Acinetobacter baumannii; conditions: for MIC50 / MIC90: Acinetobacter baumannii
Procedure: In the antimicrobial susceptibility testing 77 isolates of A. baumannii (from 2010) in the following sub-groups were tested: • 22 isolates generally susceptible to antimicrobial agents (“Sus”) • 20 carbapenem-resistant isolates (e.g. “MPM-R”) • 20 aminoglycoside-resistant isolates (e.g. “AMK-R”) • 15 colistin-resistant isolates. (e.g. “COL-R”)
Minimum inhibitory concentration (MIC) endpoints were determined by broth microdilution according to CLSI guidelines (CLSI, M7-A8 & M100-S22, 2012). Panels were prepared at IHMA using cation-adjusted Mueller-Hinton broth. Colonies were taken directly from a second-pass culture plate and prepared to a suspension equivalent of the 0.5 McFarland standard using normal saline.
Testing was carried out as described in the General Procedures to determine minimum inhibitory concentration (MIC) end points for compound (I), amikacin, colistin, gentamicin, meropenem and tobramycin, for 77 A. baumannii isolates. Under the “MIC (μg/ml)” heading, the first column (Range) indicates the MIC end points for the particular number (N) of isolates tested, the second column (50%) provides an estimate of the concentration that inhibits 50% (MIC50) of bacterial isolates tested, and the third column (90%) provides an estimate of the concentration that inhibits 90% of the bacterial isolates tested.

A. baumannii isolates [2] = test: Checkerboard testing (compound (I)/antibacterial agent interaction, FIC index); type: cell-based, Acinetobacter baumannii; conditions: Acinetobacter baumannii, read-out: MIC
Procedure: Checkerboard interaction studies were performed using 5 isolates from each of the sub-groups and time kill studies were performed using 3 isolates from each sub-group.
Checkerboards (20 isolates, 5 per sub-group) were prepared so as to contain multiple concentrations of compound (I) with different additional antibacterial agents (amikacin, gentamicin, colistin, meropenem and tobramycin) as follows:
Serial two-fold dilutions of the antimicrobial agents alone or in combination in wells of 96 well microtiter plates were inoculated with the appropriate inoculum so that each well contained approximately 4-5×10^4 CFU/ml. Plates were incubated at 35° C. for 16-20 hours. Combination concentrations were tested between 0.25×MIC and 2×MIC. Growth and sterility controls were also included in each plate.
Synergy, indifference and antagonism were calculated based upon the use of the fractional inhibitory concentration (FIC) indices as described by Pillai, Moellering & Eliopoulos (2005) whereby:
Synergism=FIC index of ≦0.5 Indifference=FIC index >1 but ≦4 Additivity >0.5 to 1 Antagonism=FIC index of >4
Checkerboard studies were carried out as described in General Procedures using twenty different A. baumannii isolates with 5 per sub-group of: susceptible, amikacin-resistant, colistin-resistant and meropenem-resistant.

[3] = Amikacin-resistant isolates, N=20
[4] = Colistin-resistant isolates, N=15
[5] = Meropenem-resistant isolates, N=20

MIC50 (A. baumannii isolates [1]; All isolates, N=77): 2 µg/mL (≈ 4.28 µM)
MIC90 (A. baumannii isolates [1]; All isolates, N=77): > 32 µg/mL
MIC50 (A. baumannii isolates [1]; [3]): > 32 µg/mL
MIC90 (A. baumannii isolates [1]; [3]): > 32 µg/mL
MIC50 (A. baumannii isolates [1]; [4]): 32 µg/mL (≈ 68.4 µM)
MIC90 (A. baumannii isolates [1]; [4]): > 32 µg/mL
MIC50 (A. baumannii isolates [1]; [5]): 4 µg/mL (≈ 8.56 µM)
MIC90 (A. baumannii isolates [1]; [5]): > 32 µg/mL
MIC50 (A. baumannii isolates [1]; Susceptible isolates, N=22): 1 µg/mL (≈ 2.14 µM)
MIC90 (A. baumannii isolates [1]; Susceptible isolates, N=22): 2 µg/mL (≈ 4.28 µM)
MIC Range (A. baumannii isolates [1]; Susceptible isolates, N=22): 0.12 to 2 µg/mL
MIC (A. baumannii isolates [2]; A. baumannii 441142, colistin-resistant): > 1020 µg/mL
MIC (A. baumannii isolates [2]; A. baumannii 441160, colistin-resistant): > 1020 µg/mL
MIC (A. baumannii isolates [2]; A. baumannii 463996, colistin-resistant): 2 µg/mL
MIC (A. baumannii isolates [2]; A. baumannii 466936, colistin-resistant): 64 µg/mL
MIC (A. baumannii isolates [2]; A. baumannii 517303, colistin-resistant): 256 µg/mL
MIC (A. baumannii isolates [2]; A. baumannii 618649, meropenem-resistant): 1 µg/mL
MIC (A. baumannii isolates [2]; A. baumannii 625917, meropenem-resistant): 1 µg/mL
MIC (A. baumannii isolates [2]; A. baumannii 628760, susceptible): 2 µg/mL
MIC (A. baumannii isolates [2]; A. baumannii 637723, amikacin-resistant): 2 µg/mL
MIC (A. baumannii isolates [2]; A. baumannii 638115, amikacin-resistant): 2 µg/mL
MIC (A. baumannii isolates [2]; A. baumannii 650216, meropenem-resistant): 1 µg/mL
MIC (A. baumannii isolates [2]; A. baumannii 655932, amikacin-resistant): 2 µg/mL
MIC (A. baumannii isolates [2]; A. baumannii 661954, amikacin-resistant): 1 µg/mL
MIC (A. baumannii isolates [2]; A. baumannii 667848, meropenem-resistant): 1 µg/mL
MIC (A. baumannii isolates [2]; A. baumannii 668116, susceptible): 1 µg/mL
MIC (A. baumannii isolates [2]; A. baumannii 668239, amikacin-resistant): 4 µg/mL
MIC (A. baumannii isolates [2]; A. baumannii 670348, susceptible): 2 µg/mL
MIC (A. baumannii isolates [2]; A. baumannii 671050, meropenem-resistant): 4 µg/mL
MIC (A. baumannii isolates [2]; A. baumannii 672190, susceptible): 1 µg/mL
MIC (A. baumannii isolates [2]; A. baumannii 674340, susceptible): 1 µg/mL
SMILES: NC[C@H]1O[C@H](O[C@H]2[C@H](O)[C@@H](O[C@H]3O[C@H](CO)[C@@H](O)[C@H](N)[C@H]3O)[C@H](N)C[C@@H]2N)[C@H](N)C[C@@H]1O [tobramycin]
